Where two headings read alike, the source gives them in different places.
Tests used:
[1] = tested on: LNCaP cells (mutant AR, H877A); experiment: LNCaP cell growth, MTT staining; type: cell-based; conditions: for inhibition at 10 µM: Homo sapiens, LNCaP, 96 h
From the text: (§1) Viable cells are stained with MTT (3-(4,5-dimethylthiazol-2-yl)-2,5-diphenyltetrazolium bromide). *, **, and *** designate p<0.05, <0.01, and 0.001, respectively, compared with controls.

[2] = tested on: LNCaP cells; experiment: PSA and AR mRNA expression, RT-PCR; type: cell-based; conditions: 24 hr
Description: (§2) In FIG. 7 LNCaP or 22Rv1 cells (A) are treated for 24 hr with DL3 and total RNA is extracted and analyzed by real-time RT-PCR. […] PSA mRNA in LNCaP cells is approximately 20 fold higher than that in 22Rv1 cells (FIG. 7A).

[3] = tested on: human PSA gene promoter; experiment: PSA promoter luciferase reporter (pGL3-PSA-luc) in LNCaP cells; conditions: 24 hr
[4] = tested on: LNCaP cells; experiment: Expression of AR-regulated genes, quantitative RT-PCR (Table 1); type: cell-based; conditions: data not shown
[5] = tested on: AR; experiment: AR nuclear localization, immunostaining; type: cell-based; conditions: PC-3AR and LNCaP cells, SMEM, 20 μM, with or without 1 nM DHT, 2 h
From the text: AR nuclear translocation is a necessary step for AR action. […] AR in the cells were stained with an antibody to AR and detected with Texas Red-labeled secondary antibody. […] AR is translocated to the nuclei upon treatment with DHT. […] Thus, DL3 binds to AR.

[6] = tested on: LAPC-4, 22Rv1, PC-3, DU-145, PWE1-NB14, PWE1-NB26, PC-3AR cells; experiment: hsp70 expression in other prostate cancer cell lines, western blotting; type: cell-based
Description: Downregulation of hsp70 expression by DL3 is AR-dependent. Thus, the effects of DL3 on hsp70 expression are further investigated in several other prostate cancer cell lines, including LAPC-4 (wildtype AR), 22Rv1 (mutant AR), and AR-negative cell lines PC-3, DU-145, PWE1-NB14 (ATCC), and PWE1-NB26 (ATCC). […] In FIG. 10, LAPC-4 (in SMEM) and all other (in CMEM) cells are treated for 24 hr and analyzed by western blotting. LNCaP cells are transfected for 24 hr with hsp70 or its control vector, then treated for 24 hr. Thus, the above observation is further validated in PC-3 cells stably transfected with wildtype AR (PC-3AR). […] On the other hand, overexpression of hsp70 in LNCaP cells elevates endogenous AR protein levels (FIG. 10, panel C, right). […] Thus, the downregulation of hsp70 in prostate cancer cells by DL3 is in an AR-dependent event.

[7] = tested on: 22Rv1 cells; experiment: PSA mRNA expression, real-time RT-PCR; type: cell-based; conditions: CMEM, 24 hr, dose response (FIG. 7A)
Description: as §2

[8] = tested on: AR-AF1 (LBD deleted); experiment: PSA promoter luciferase reporter in PC-3 cells co-transfected with AR-AF1; conditions: 20 μM, 24 hr
[9] = tested on: LNCaP cells; experiment: PSA secretion, ELISA of culture supernatant; type: cell-based
Description: PSA in the culture supernatant is determined by using an enzyme-linked immunosorbent assay (ELISA) kit. PSA levels are normalized by cell density.

[10] = tested on: AR-AF2 (NTD deleted); experiment: PSA promoter luciferase reporter in PC-3 cells co-transfected with AR-AF2; conditions: 20 μM, 24 hr
[11] = tested on: LNCaP cells; experiment: Cellular PSA and AR protein, western blotting; type: cell-based; conditions: 24 hr
Description: In FIG. 6, cellular PSA and AR are analyzed by western blotting androgen-starved LNCaP cells.

[12] = tested on: LNCaP-Nilut-R cells; experiment: Growth of Nilut-refractory LNCaP cells, MTT; type: cell-based; conditions: 10 μM, 4 days, MTT (FIG. 2F)
From the text: as §1

[13] = tested on: LNCaP-Flut-R cells; experiment: Growth of Flut-refractory LNCaP cells, MTT; type: cell-based; conditions: 10 μM, 4 days, MTT (FIG. 2F)
From the text: as §1

[14] = tested on: LNCaP cells; experiment: PSA and AR mRNA expression, RT-PCR; type: cell-based; conditions: 6 hr

In the case of `CC(C)(C)c1ccc(OCCSc2nc(=O)cc(N)[nH]2)cc1` [DL3, 6-amino-2-(2-4-tert-butyl-phenoxy)-ethylsulfanyl-1H-pyrimidin-4-one], the “concentration at which inhibition of DHT-stimulated growth reaches a plateau” value ([1]; 1 nM DHT, 4 days) is reported as “greater than 10 μM”, the “effect on DHT-stimulated growth of LNCaP cells” value ([1]; 1 nM DHT, SMEM, 4 days, dose response) is reported as “inhibits DHT-stimulated growth” and the “growth of parental LNCaP cells” value ([1]; 10 μM, 4 days, MTT (FIG. 2F)) is reported as “significantly inhibits growth”. The “additive effect on growth of DL3 with Flut, Nilut or Bical” value ([1]; CMEM, 4 days, 5 μM DL3 and 10 μM of Flut, Nilut, or Bical) was “No significant additive effect”, the inhibition at 10 µM ([1]; read-out: inhibition of growth of LNCaP cells in the absence of DHT) was 27% and the inhibition at 10 µM ([1]; read-out: inhibition of growth of LNCaP cells in the presence of DHT) was 82%. For the same molecule, the “growth of LNCaP cells in the absence of DHT” value ([1]; no DHT, dose response) was “inhibits growth”, the “DHT-stimulated PSA mRNA expression” value ([2]; 20 μM, 1 nM DHT) was “abolishes” and the “basal level of PSA mRNA” value ([2]; 20 μM, androgen-starved) was “significantly reduces”. For the same molecule, the “expression of AR mRNA” value ([2]; 1 nM DHT, 20 μM DL3 or Bical) was “partially downregulated”, the “expression of PSA mRNA” value ([2]; CMEM, dose response (FIG. 7A)) was “inhibits the expression of PSA mRNA” and the “basal PSA promoter activity” value ([3]; 20 μM alone) was “does not significantly alter”. The “PSA promoter activity induced by DHT” value ([3]; 20 μM, 1 nM DHT) was “attenuates”, the “PSMA expression at the protein level” value [4] was “Enhancement of PSMA expression” and the “nuclear localization of AR” value [5] was “partially induce and enhance DHT-induced nuclear localization of AR”. The “downregulation of hsp70 expression across AR-positive and AR-negative cell lines” value ([6]; LAPC-4, 22Rv1 vs AR-negative PC-3, DU-145, PWE1-NB14, PWE1-NB26, 24 hr) was “found in only the cells expressing AR”, the “hsp70 expression in PC-3AR cells” value ([6]; PC-3 stably transfected with wildtype AR) was “downregulates hsp70 expression” and the “expression of PSA mRNA” value [7] was “inhibits the expression of PSA mRNA”. The “activation of PSA promoter activity by AR-AF1” value [8] was “does not inhibit”, the “PSA production in parental LNCaP cells” value ([9]; 1 nM DHT, 10 μM, 48 hr (FIG. 5D)) was “inhibits PSA production” and the “reduction of DHT-induced production of PSA” value ([9]; 5 μM, 48 hr) was “approximately 50%”. The “PSA production under androgen-free conditions” value ([9]; 20 μM, no DHT, 48 hr) was “does not induce PSA production”, the inhibition at 20 µM ([9]; Homo sapiens, LNCaP, 48 h, read-out: inhibition of DHT-induced PSA production) was about 90% and the “inhibitory effects on DHT-induced PSA production, dose response” value ([9]; various concentrations of DL3 and DHT (FIG. 5B)) was “dose-dependent”. For the same molecule, the “PSA production stimulated by Nilut” value ([9]; various concentrations of DL3 and Nilut (FIG. 5C)) was “blocked”, the “activation of PSA promoter activity by AR-AF2” value [10] was “does not inhibit” and the “expression of AR protein” value ([11]; 5 and 10 μM) was “not significantly altered”. For the same molecule, the “expression of AR protein” value ([11]; 20 and 40 μM) was “reduced”, the “DHT-induced PSA protein expression” value ([11]; SMEM, Flut, Nilut, Bical at 20 μM) was “dose-dependently reduced” and the “growth of LNCaP-Nilut-R cells” value [12] was “significantly inhibits growth”. The “growth of LNCaP-Flut-R cells” value [13] was “significantly inhibits growth” and the “AR mRNA expression” value [14] was “not significantly altered”.

Reference: patent US7829575B2, “Methods for treating androgen receptor related disorders” (University of Cincinnati, priority 2006, dated 2010)
